Experimental data from patent publication US5627177A, “Piperazine derivatives” (John Wyeth & Brother, Ltd., priority 1993, dated 1997).

Experiments:
5-HT1A receptor [1] = target: T1, 5-HT1A receptor (Rattus norvegicus, UniProt P19327); experiment: 5-HT1A receptor binding activity in rat hippocampal membrane homogenate; design: from tissue
T1 sequence (P19327 1-422): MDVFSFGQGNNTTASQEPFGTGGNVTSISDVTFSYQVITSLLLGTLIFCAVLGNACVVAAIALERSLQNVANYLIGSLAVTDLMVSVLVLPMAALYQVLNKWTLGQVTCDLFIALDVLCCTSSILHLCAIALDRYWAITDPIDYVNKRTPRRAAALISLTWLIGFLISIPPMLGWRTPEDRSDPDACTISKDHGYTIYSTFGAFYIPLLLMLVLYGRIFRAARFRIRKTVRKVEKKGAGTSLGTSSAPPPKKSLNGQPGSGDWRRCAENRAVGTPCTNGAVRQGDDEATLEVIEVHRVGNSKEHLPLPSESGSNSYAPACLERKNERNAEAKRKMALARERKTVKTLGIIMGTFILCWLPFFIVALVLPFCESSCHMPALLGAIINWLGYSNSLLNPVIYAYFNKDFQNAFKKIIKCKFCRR
Method: The compounds of the invention are tested for 5-HT1A receptor binding activity in rat hippocampal membrane homogenate by the method of B. S. Alexander and M. D. Wood, J Pharm Pharmacol, 1988, 40, 888-891.

5-HT1A receptor [2] = target: T1, 5-HT1A receptor; experiment: 5-HT1A receptor antagonism: antagonism of 8-hydroxy-2-(di-n-propylamino)-tetralin (8-OH DPAT) syndrome in the rat; assay type: in vivo; design: syndrome in the rat; from tissue; host or cells: whole living rat (in vivo); details: sc, antagonism of 8-OH DPAT syndrome, read-out: median effective dose
Method: The compounds are also tested for 5-HT1A receptor antagonism activity in a test involving the antagonism of 8-hydroxy-2-(di-n-propylamino)-tetralin (8-OH DPAT) syndrome in the rat.

- IC50 (5-HT1A receptor [1]): 0.72 nM
- ED50 (5-HT1A receptor [2]): 0.3 mg/kg
Structure (SMILES): COC(=O)c1cc2c(N3CCN(CCC(C(=O)N4CCCCCC4)c4ccccc4)CC3)cccc2[nH]1 (racemic) [Example 5, 4-[4-(4-Azepan-1-yl-4-oxo-3-phenylbutyl)piperazin-1-yl]-1H-indole-2-carboxylic acid methyl ester]
